How the values were obtained:
Toxocara canis = assay: Prevention of vertical (prenatal) Toxocara canis infection in pups of experimentally infected beagle bitches treated during pregnancy; format: in vivo; details: for percentage efficacy, number of excreted eggs per gram of faeces: measured in pups; for percentage efficacy, number of intestinal stages in the intestine: pups euthanised on 35th day of life
Description: (§1) The investigations were carried out on eighteen beagle bitches which had been experimentally infected with Toxocara canis. Six of these animals served as the untreated control group. Two different treatment schemes were used. In treatment group 1 (T1), six bitches were treated daily, from the 42nd day of pregnancy onwards until the birth of the pups, with in each case 1 mg of emodepside/kg of body weight, given orally as a tablet formulation; the six bitches in treatment group 2 (T2) were treated in the same way except that the treatment was only given every third day instead of daily. The efficacy of the treatment was assessed by determining three target quantities in the pups: number of somatic T. canis larvae in samples of the liver, lung, kidney and gastrointestinal tract including content and musculature (euthanasia of the pups directly after birth), number of excreted eggs per gram of faeces and number of intestinal T. canis stages after washing out the intestine (euthanasia of the pups on the 35th day of life).

[1] = Tolerability in dams and pups in the beagle study; format: in vivo; details: 1 mg/kg orally, T1 and T2
Description: as §1
Incompatibility phenomena were not observed either in the dam or in the pups.

[2] = T2: 1 mg/kg orally, every third day from 42nd day of pregnancy until birth

SMILES: CC(C)C[C@H]1C(=O)O[C@H](Cc2ccc(N3CCOCC3)cc2)C(=O)N(C)[C@@H](CC(C)C)C(=O)O[C@H](C)C(=O)N(C)[C@@H](CC(C)C)C(=O)O[C@H](Cc2ccc(N3CCOCC3)cc2)C(=O)N(C)[C@@H](CC(C)C)C(=O)O[C@H](C)C(=O)N1C [emodepside]
- mean value of percentage efficacy obtained from the target quantities (Toxocara canis; T1 (daily treatment)): 98.7%
- percentage efficacy, number of excreted eggs per gram of faeces (Toxocara canis; T1: 1 mg emodepside/kg body weight orally as tablet, daily from 42nd day of pregnancy until birth): 99.9%
- percentage efficacy, number of somatic larvae in the digestive organs (Toxocara canis; T1: 1 mg/kg orally, daily from 42nd day of pregnancy until birth, pups euthanised directly after birth): 96.4%
- percentage efficacy, number of intestinal stages in the intestine (Toxocara canis; T1: 1 mg/kg orally, daily from 42nd day of pregnancy until birth): 99.9%
- mean value of percentage efficacy obtained from the target quantities (Toxocara canis; T2 (treatment every third day)): 97.5%
- percentage efficacy, number of excreted eggs per gram of faeces (Toxocara canis; [2]): 99.9%
- percentage efficacy, number of somatic larvae (Toxocara canis; T2: 1 mg/kg orally, every third day from 42nd day of pregnancy until birth, pups euthanised directly after birth): 93.8%
- percentage efficacy, number of intestinal stages in the intestine (Toxocara canis; [2]): 98.7%
- prenatal infection with T. canis in the pups (Toxocara canis; both treatment schemes (T1 and T2)): marked reduction
- incompatibility phenomena in the dam or in the pups [1]: not observed

From patent publication US20090215678A1, “Preventing Vertical Endoparasite Infections” (BAYER HEALTHCARE AG, priority 2004, published 2009)
